These results are taken from US9079901B2, “Fused heterocyclic compounds as ion channel modulators” (Gilead Sciences, Inc., priority 2010, dated 2015).

The target in this assay is wild-type human cardiac sodium channel, hNav1.5 (late sodium current) in HEK293 cells (Homo sapiens, UniProt Q14524). The experiment in a line: Late INa screening assay (automated whole-cell patch clamp, PatchXpress). The class given is cell-based. As to conditions: late INa generated with 10 μM Tefluthrin (or 50 nM ATX II), HEK293 hNav1.5; for inhibition at 1 µM: HEK293, compound at 1 μM, read-out: Late INa 1 μM (percent block of late INa). In short, it runs like this: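 Percent block was derived from mean current 225–250 ms into a 250 ms depolarisation to −20 mV (holding −120 mV, every 10 s), normalised to the current left in Na-free solution. Whole-cell recordings came from HEK293 cells stably expressing α-subunit-only hNav1.5, at 24–27 °C. Late current was enhanced with 10 μM tefluthrin or 50 nM ATX II, then compound (typically 10 μM) was added three times over 7–8 min.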
In general terms: In patch-clamp work, channel activity is measured electrically.

Sequence of wild-type human cardiac sodium channel, hNav1.5 (late sodium current) in HEK293 cells (Q14524 whole entry): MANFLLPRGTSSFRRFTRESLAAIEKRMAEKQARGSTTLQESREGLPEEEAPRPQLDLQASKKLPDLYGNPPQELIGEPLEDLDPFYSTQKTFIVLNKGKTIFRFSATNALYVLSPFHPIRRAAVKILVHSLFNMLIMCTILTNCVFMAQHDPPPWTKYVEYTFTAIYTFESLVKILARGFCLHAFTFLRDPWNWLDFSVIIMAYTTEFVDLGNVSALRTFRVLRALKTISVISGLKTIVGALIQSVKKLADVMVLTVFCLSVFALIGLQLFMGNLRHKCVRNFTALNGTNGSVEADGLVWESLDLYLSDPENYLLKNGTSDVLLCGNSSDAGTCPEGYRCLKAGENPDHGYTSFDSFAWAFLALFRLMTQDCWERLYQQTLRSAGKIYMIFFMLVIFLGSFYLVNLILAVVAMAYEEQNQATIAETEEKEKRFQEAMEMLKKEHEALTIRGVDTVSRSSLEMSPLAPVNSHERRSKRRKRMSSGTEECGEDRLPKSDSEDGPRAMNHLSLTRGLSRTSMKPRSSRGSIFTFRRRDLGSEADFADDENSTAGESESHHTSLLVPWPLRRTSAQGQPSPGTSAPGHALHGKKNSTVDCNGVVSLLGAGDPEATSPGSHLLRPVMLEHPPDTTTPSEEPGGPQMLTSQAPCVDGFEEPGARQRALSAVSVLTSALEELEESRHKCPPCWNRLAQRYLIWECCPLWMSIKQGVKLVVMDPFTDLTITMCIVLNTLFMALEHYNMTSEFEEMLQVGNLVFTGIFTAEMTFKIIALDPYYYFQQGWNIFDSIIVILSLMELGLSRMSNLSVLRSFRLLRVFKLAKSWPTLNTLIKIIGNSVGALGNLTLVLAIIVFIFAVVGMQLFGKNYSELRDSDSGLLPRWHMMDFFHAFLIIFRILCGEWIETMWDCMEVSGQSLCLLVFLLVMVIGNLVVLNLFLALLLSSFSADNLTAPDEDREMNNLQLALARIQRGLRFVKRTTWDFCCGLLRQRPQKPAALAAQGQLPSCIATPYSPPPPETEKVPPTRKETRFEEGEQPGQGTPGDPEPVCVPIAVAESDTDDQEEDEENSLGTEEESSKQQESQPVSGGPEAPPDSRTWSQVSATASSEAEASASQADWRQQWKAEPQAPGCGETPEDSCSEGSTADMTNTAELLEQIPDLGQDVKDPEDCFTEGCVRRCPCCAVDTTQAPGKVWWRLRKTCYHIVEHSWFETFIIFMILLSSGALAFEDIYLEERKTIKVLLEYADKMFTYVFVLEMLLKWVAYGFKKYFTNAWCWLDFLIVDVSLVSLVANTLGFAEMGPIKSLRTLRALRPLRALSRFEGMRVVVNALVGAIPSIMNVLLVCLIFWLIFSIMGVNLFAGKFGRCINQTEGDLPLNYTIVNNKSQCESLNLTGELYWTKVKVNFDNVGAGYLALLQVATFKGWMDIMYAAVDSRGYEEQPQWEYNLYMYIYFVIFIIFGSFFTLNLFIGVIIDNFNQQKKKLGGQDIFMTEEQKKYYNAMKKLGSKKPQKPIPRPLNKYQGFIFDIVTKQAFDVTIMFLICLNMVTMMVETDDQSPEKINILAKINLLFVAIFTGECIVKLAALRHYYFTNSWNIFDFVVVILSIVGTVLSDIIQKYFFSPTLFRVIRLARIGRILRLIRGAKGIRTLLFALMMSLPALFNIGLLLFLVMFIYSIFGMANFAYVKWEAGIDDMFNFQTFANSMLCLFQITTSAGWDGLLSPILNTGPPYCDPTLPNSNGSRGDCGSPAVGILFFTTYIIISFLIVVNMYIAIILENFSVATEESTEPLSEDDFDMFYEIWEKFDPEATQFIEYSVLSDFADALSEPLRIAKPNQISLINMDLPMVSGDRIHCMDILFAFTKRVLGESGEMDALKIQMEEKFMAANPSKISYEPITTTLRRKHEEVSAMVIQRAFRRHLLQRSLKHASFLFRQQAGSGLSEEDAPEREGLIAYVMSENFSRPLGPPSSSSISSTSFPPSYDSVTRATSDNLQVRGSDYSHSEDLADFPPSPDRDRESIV

`O=c1n(CCCOc2ccccc2C(F)(F)F)nc2ccc(-c3ccc(OC(F)(F)F)cc3)cn12` [compound 71, 6-(4-(trifluoromethoxy)phenyl)-2-(3-(2-(trifluoromethyl)phenoxy)propyl)-[1,2,4]triazolo[4,3-a]pyridin-3(2H)-one]: under “compound at 1 μM”, the “Late INa 1 μM (percent block of late INa)” value came to 26.0692%.

As for `COC[C@@H](Cn1nc2ccc(-c3ccc(OC(F)(F)F)cc3)cn2c1=O)Oc1ncccc1C(F)(F)F` [compound 72, (R)-2-(3-methoxy-2-(3-(trifluoromethyl)pyridin-2-yloxy)propyl)-6-(4-(trifluoromethoxy)phenyl)-[1,2,4]triazolo[4,3-a]pyridin-3(2H)-one], the inhibition at 1 µM was 41.9%.

With `O=c1n(CCc2cccnc2)nc2ccc(-c3ccc(OC(F)(F)F)cc3)cn12` [compound 73, 2-(2-(pyridin-3-yl)ethyl)-6-(4-(trifluoromethoxy)phenyl)-[1,2,4]triazolo[4,3-a]pyridin-3(2H)-one], the inhibition at 1 µM came out at 10.4%.

For the compound `O=c1n(CCc2ccc(-c3cccnc3)cn2)nc2ccc(-c3ccc(OC(F)(F)F)cc3)cn12` [compound 74, 2-(2-(3,3′-bipyridin-6-yl)ethyl)-6-(4-(trifluoromethoxy)phenyl)-[1,2,4]triazolo[4,3-a]pyridin-3(2H)-one], the inhibition at 1 µM was 11.1%.

Regarding `Cc1ccc(OCCn2nc3ccc(-c4ccc(OC(F)(F)F)cc4)cn3c2=O)cc1` [compound 75, 2-(2-(p-tolyloxy)ethyl)-6-(4-(trifluoromethoxy)phenyl)-[1,2,4]triazolo[4,3-a]pyridin-3(2H)-one], the inhibition at 1 µM worked out at 25.7%.

For the compound `O=c1n(CCCc2ccc(F)cc2)nc2ccc(-c3ccc(OC(F)(F)F)cc3)cn12` [compound 76, 2-(3-(4-fluorophenyl)propyl)-6-(4-(trifluoromethoxy)phenyl)-[1,2,4]triazolo[4,3-a]pyridin-3(2H)-one], the inhibition at 1 µM came to 19%.

Regarding `O=c1n(CC2CCc3ccccc3O2)nc2ccc(-c3ccc(OC(F)(F)F)cc3)cn12` (stereo not drawn) [compound 77, 2-(chroman-2-ylmethyl)-6-(4-(trifluoromethoxy)phenyl)-[1,2,4]triazolo[4,3-a]pyridin-3(2H)-one], the inhibition at 1 µM was 32.1%.

Take `O=c1n(CCc2ccc(F)cc2F)nc2ccc(-c3ccc(OC(F)(F)F)cc3)cn12` [compound 78, 2-(2,4-difluorophenethyl)-6-(4-(trifluoromethoxy)phenyl)-[1,2,4]triazolo[4,3-a]pyridin-3(2H)-one]: the inhibition at 1 µM worked out at 36.7%.

On to `O=c1n(CCCOc2cccnn2)nc2ccc(-c3ccc(OC(F)(F)F)cc3)cn12` [compound 79, 2-(3-(pyridazin-3-yloxy)propyl)-6-(4-(trifluoromethoxy)phenyl)-[1,2,4]triazolo[4,3-a]pyridin-3(2H)-one], for which the inhibition at 1 µM turned out to be 11.7%.

As to `COC(COc1ccccc1Cl)Cn1nc2ccc(-c3ccc(OC(F)(F)F)cc3)cn2c1=O` (stereo not drawn) [compound 80, 2-(3-(2-chlorophenoxy)-2-methoxypropyl)-6-(4-(trifluoromethoxy)phenyl)-[1,2,4]triazolo[4,3-a]pyridin-3(2H)-one], the inhibition at 1 µM amounted to 33.4%.

As to `O=c1n(CCOc2cccnn2)nc2ccc(-c3ccc(OC(F)(F)F)cc3)cn12` [compound 81, 2-(2-(pyridazin-3-yloxy)ethyl)-6-(4-(trifluoromethoxy)phenyl)-[1,2,4]triazolo[4,3-a]pyridin-3(2H)-one], the inhibition at 1 µM was 11%.

For the compound `Cc1cnc(OCCn2nc3ccc(-c4ccc(OC(F)(F)F)cc4)cn3c2=O)nc1` [compound 82, 2-(2-(5-methylpyrimidin-2-yloxy)ethyl)-6-(4-(trifluoromethoxy)phenyl)-[1,2,4]triazolo[4,3-a]pyridin-3(2H)-one], the inhibition at 1 µM stood at 32.5%.

For the compound `Cc1noc(Cn2nc3ccc(-c4ccc(OCC(F)(F)F)cc4)cn3c2=O)n1` [compound 83, 2-((3-methyl-1,2,4-oxadiazol-5-yl)methyl)-6-(4-(2,2,2-trifluoroethoxy)phenyl)-[1,2,4]triazolo[4,3-a]pyridin-3(2H)-one], the inhibition at 1 µM was 10.7%.

As to `Cc1noc(-c2ccccc2OCCn2nc3ccc(-c4ccc(OC(F)(F)F)cc4)cn3c2=O)n1` [compound 84, 2-(2-(2-(3-methyl-1,2,4-oxadiazol-5-yl)phenoxy)ethyl)-6-(4-(trifluoromethoxy)phenyl)-[1,2,4]triazolo[4,3-a]pyridin-3(2H)-one], the inhibition at 1 µM stood at 34.3%.

As to `O=c1n(CCCOc2cnccn2)nc2ccc(-c3ccc(OC(F)(F)F)cc3)cn12` [compound 85, 2-(3-(pyrazin-2-yloxy)propyl)-6-(4-(trifluoromethoxy)phenyl)-[1,2,4]triazolo[4,3-a]pyridin-3(2H)-one], the inhibition at 1 µM was 12.2%.

In the case of `Cc1nc(COCCn2nc3ccc(-c4ccc(OC(F)(F)F)cc4)cn3c2=O)no1` [compound 86, 2-(2-((5-methyl-1,2,4-oxadiazol-3-yl)methoxy)ethyl)-6-(4-(trifluoromethoxy)phenyl)-[1,2,4]triazolo[4,3-a]pyridin-3(2H)-one], the inhibition at 1 µM was found to be 17.5%.

In the case of `Cc1noc(Cn2nc3ccc(-c4ccc(OC(F)(F)F)cc4C)cn3c2=O)n1` [compound 87, 2-((3-methyl-1,2,4-oxadiazol-5-yl)methyl)-6-(2-methyl-4-(trifluoromethoxy)phenyl)-[1,2,4]triazolo[4,3-a]pyridin-3(2H)-one], the inhibition at 1 µM turned out to be 21.3%.

Take `Cc1cc(C)nc(OCCn2nc3ccc(-c4ccc(OC(F)(F)F)cc4)cn3c2=O)n1` [compound 88, 2-(2-(4,6-dimethylpyrimidin-2-yloxy)ethyl)-6-(4-(trifluoromethoxy)phenyl)-[1,2,4]triazolo[4,3-a]pyridin-3(2H)-one]: the inhibition at 1 µM came out at 20.8%.

As to `O=c1n(CC(COc2ccccc2Cl)Oc2ncccn2)nc2ccc(-c3ccc(OC(F)(F)F)cc3)cn12` (stereo not drawn) [compound 89, 2-(3-(2-chlorophenoxy)-2-(pyrimidin-2-yloxy)propyl)-6-(4-(trifluoromethoxy)phenyl)-[1,2,4]triazolo[4,3-a]pyridin-3(2H)-one], the inhibition at 1 µM came to 16%.

Regarding `O=c1n(CCOc2nccc(C3CC3)n2)nc2ccc(-c3ccc(OC(F)(F)F)cc3)cn12` [compound 90, 2-(2-(4-cyclopropylpyrimidin-2-yloxy)ethyl)-6-(4-(trifluoromethoxy)phenyl)-[1,2,4]triazolo[4,3-a]pyridin-3(2H)-one], the inhibition at 1 µM was 36.3%.

With `COC[C@H](Cn1nc2ccc(-c3ccc(OC(F)(F)F)cc3)cn2c1=O)Oc1ncccc1C(F)(F)F` [compound 91, (S)-2-(3-methoxy-2-(3-(trifluoromethyl)pyridin-2-yloxy)propyl)-6-(4-(trifluoromethoxy)phenyl)-[1,2,4]triazolo[4,3-a]pyridin-3(2H)-one], the inhibition at 1 µM is 58.3%.

With `O=c1n(CCOc2ncc(Cl)cn2)nc2ccc(-c3ccc(OC(F)(F)F)cc3)cn12` [compound 92, 2-(2-(5-chloropyrimidin-2-yloxy)ethyl)-6-(4-(trifluoromethoxy)phenyl)-[1,2,4]triazolo[4,3-a]pyridin-3(2H)-one], the inhibition at 1 µM is 35.3%.

Consider `Cc1noc(Cn2nc3ccc(-c4ccc(Oc5ccc(F)cc5)cc4)cn3c2=O)n1` [compound 93, 6-(4-(4-fluorophenoxy)phenyl)-2-((3-methyl-1,2,4-oxadiazol-5-yl)methyl)-[1,2,4]triazolo[4,3-a]pyridin-3(2H)-one], for which the inhibition at 1 µM was 71.3%.

Take `CC(=O)OCc1nc(Cn2nc3ccc(-c4ccc(OC(F)(F)F)cc4)cn3c2=O)no1` [compound 94, (3-((3-oxo-6-(4-(trifluoromethoxy)phenyl)-[1,2,4]triazolo[4,3-a]pyridin-2(3H)-yl)methyl)-1,2,4-oxadiazol-5-yl)methyl acetate]: the inhibition at 1 µM turned out to be 28.2%.

In the case of `CO[C@H](COc1ccccc1Cl)Cn1nc2ccc(-c3ccc(OC(F)(F)F)cc3)cn2c1=O` [compound 95, (S)-2-(3-(2-chlorophenoxy)-2-methoxypropyl)-6-(4-(trifluoromethoxy)phenyl)-[1,2,4]triazolo[4,3-a]pyridin-3(2H)-one], the inhibition at 1 µM was 42.5%.

`CO[C@@H](COc1ccccc1Cl)Cn1nc2ccc(-c3ccc(OC(F)(F)F)cc3)cn2c1=O` [compound 96, (R)-2-(3-(2-chlorophenoxy)-2-methoxypropyl)-6-(4-(trifluoromethoxy)phenyl)-[1,2,4]triazolo[4,3-a]pyridin-3(2H)-one]: the inhibition at 1 µM amounted to 46.1%.

On to `Cn1c(CCn2nc3ccc(-c4ccc(OC(F)(F)F)cc4)cn3c2=O)nc2ccccc21` [compound 97, 2-(2-(1-methyl-1H-benzo[d]imidazol-2-yl)ethyl)-6-(4-(trifluoromethoxy)phenyl)-[1,2,4]triazolo[4,3-a]pyridin-3(2H)-one], for which the inhibition at 1 µM amounted to 16%.

Turning to `COc1cc(F)ccc1OCC(O)Cn1nc2ccc(-c3ccc(OC(F)(F)F)cc3)cn2c1=O` (stereo not drawn) [compound 98, 2-(3-(4-fluoro-2-methoxyphenoxy)-2-hydroxypropyl)-6-(4-(trifluoromethoxy)phenyl)-[1,2,4]triazolo[4,3-a]pyridin-3(2H)-one], the inhibition at 1 µM was determined as 23.2%.

As to `CCOc1ccccc1OCC(O)Cn1nc2ccc(-c3ccc(OC(F)(F)F)cc3)cn2c1=O` (stereo not drawn) [compound 99, 2-(3-(2-ethoxyphenoxy)-2-hydroxypropyl)-6-(4-(trifluoromethoxy)phenyl)-[1,2,4]triazolo[4,3-a]pyridin-3(2H)-one], the inhibition at 1 µM came to 36.5%.

`O=c1n(CC(O)COc2ccccc2-c2ccccc2)nc2ccc(-c3ccc(OC(F)(F)F)cc3)cn12` (stereo not drawn) [compound 100, 2-(3-(biphenyl-2-yloxy)-2-hydroxypropyl)-6-(4-(trifluoromethoxy)phenyl)-[1,2,4]triazolo[4,3-a]pyridin-3(2H)-one]: the inhibition at 1 µM was 18%.
